Source: paper PMC9481570, “A small molecule antagonist of SMN disrupts the interaction between SMN and RNAP II” (Nature Communications, 2022)
Values joined by “and” are separate entries in the source; they are usually repeats but may differ in a detail not shown here. Identical values can stand only once.

Key:
Experiment in all cases: Affinity-purification and mass spectrometry (AP-MS) chemical proteomics, all proteins;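 as to Difference: 200 µM free competitor with 20 µM biotin probe overnight in lysate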
Type in all cases: binding
[1] = biological target: T1, proteins displaced from immobilized biotin-Cmpd 1 pulldowns (U2OS cell lysate) (Homo sapiens, UniProt Q13867); settings: GN=BLMH (Q13867)
T1 construct: endogenous in cells; host or cells: U2OS

[2] = biological target: T2, proteins displaced from immobilized biotin-Cmpd 1 pulldowns (U2OS cell lysate) (Homo sapiens, UniProt Q12873); settings: GN=CHD3 (Q12873)
T2 construct: endogenous in cells; host or cells: U2OS

[3] = biological target: T3, proteins displaced from immobilized biotin-Cmpd 1 pulldowns (U2OS cell lysate) (Homo sapiens, UniProt P06493); settings: GN=CDK1 (P06493)
T3 construct: endogenous in cells; host or cells: U2OS

[4] = biological target: T4, proteins displaced from immobilized biotin-Cmpd 1 pulldowns (U2OS cell lysate) (Homo sapiens, UniProt Q9Y6M1); settings: GN=IGF2BP2 (Q9Y6M1)
T4 construct: endogenous in cells; host or cells: U2OS

[5] = biological target: T5, proteins displaced from immobilized biotin-Cmpd 1 pulldowns (U2OS cell lysate) (Homo sapiens, UniProt P25311); settings: GN=AZGP1 (P25311)
T5 construct: endogenous in cells; host or cells: U2OS

[6] = biological target: T6, proteins displaced from immobilized biotin-Cmpd 1 pulldowns (U2OS cell lysate) (Homo sapiens, UniProt Q9Y3C1); settings: GN=NOP16 (Q9Y3C1)
T6 construct: endogenous in cells; host or cells: U2OS

[7] = biological target: T7, proteins displaced from immobilized biotin-Cmpd 1 pulldowns (U2OS cell lysate) (Homo sapiens, UniProt Q14566); settings: GN=MCM6 (Q14566)
T7 construct: endogenous in cells; host or cells: U2OS

[8] = biological target: T8, proteins displaced from immobilized biotin-Cmpd 1 pulldowns (U2OS cell lysate) (Homo sapiens, UniProt Q8NBJ5); settings: GN=COLGALT1 (Q8NBJ5)
T8 construct: endogenous in cells; host or cells: U2OS

[9] = biological target: T9, proteins displaced from immobilized biotin-Cmpd 1 pulldowns (U2OS cell lysate) (Homo sapiens, UniProt Q92621); settings: GN=NUP205 (Q92621)
T9 construct: endogenous in cells; host or cells: U2OS

[10] = biological target: T10, proteins displaced from immobilized biotin-Cmpd 1 pulldowns (U2OS cell lysate) (Homo sapiens, UniProt P56537); settings: GN=EIF6 (P56537)
T10 construct: endogenous in cells; host or cells: U2OS

T6 sequence (Q9Y3C1 whole entry): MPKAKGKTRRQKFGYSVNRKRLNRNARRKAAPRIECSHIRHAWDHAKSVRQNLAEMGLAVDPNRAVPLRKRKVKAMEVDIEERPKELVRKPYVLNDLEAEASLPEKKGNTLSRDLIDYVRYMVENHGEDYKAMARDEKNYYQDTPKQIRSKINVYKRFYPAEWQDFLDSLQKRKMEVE
T5 sequence (P25311 21-298): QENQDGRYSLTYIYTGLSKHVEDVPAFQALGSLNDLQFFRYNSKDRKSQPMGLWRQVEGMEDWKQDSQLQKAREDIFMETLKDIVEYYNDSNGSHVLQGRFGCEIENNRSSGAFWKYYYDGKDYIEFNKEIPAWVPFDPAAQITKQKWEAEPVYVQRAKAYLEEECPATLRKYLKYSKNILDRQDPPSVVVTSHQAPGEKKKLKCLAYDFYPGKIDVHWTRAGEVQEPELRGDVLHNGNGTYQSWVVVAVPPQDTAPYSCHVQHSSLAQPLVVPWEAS
T2 sequence (Q12873 whole entry): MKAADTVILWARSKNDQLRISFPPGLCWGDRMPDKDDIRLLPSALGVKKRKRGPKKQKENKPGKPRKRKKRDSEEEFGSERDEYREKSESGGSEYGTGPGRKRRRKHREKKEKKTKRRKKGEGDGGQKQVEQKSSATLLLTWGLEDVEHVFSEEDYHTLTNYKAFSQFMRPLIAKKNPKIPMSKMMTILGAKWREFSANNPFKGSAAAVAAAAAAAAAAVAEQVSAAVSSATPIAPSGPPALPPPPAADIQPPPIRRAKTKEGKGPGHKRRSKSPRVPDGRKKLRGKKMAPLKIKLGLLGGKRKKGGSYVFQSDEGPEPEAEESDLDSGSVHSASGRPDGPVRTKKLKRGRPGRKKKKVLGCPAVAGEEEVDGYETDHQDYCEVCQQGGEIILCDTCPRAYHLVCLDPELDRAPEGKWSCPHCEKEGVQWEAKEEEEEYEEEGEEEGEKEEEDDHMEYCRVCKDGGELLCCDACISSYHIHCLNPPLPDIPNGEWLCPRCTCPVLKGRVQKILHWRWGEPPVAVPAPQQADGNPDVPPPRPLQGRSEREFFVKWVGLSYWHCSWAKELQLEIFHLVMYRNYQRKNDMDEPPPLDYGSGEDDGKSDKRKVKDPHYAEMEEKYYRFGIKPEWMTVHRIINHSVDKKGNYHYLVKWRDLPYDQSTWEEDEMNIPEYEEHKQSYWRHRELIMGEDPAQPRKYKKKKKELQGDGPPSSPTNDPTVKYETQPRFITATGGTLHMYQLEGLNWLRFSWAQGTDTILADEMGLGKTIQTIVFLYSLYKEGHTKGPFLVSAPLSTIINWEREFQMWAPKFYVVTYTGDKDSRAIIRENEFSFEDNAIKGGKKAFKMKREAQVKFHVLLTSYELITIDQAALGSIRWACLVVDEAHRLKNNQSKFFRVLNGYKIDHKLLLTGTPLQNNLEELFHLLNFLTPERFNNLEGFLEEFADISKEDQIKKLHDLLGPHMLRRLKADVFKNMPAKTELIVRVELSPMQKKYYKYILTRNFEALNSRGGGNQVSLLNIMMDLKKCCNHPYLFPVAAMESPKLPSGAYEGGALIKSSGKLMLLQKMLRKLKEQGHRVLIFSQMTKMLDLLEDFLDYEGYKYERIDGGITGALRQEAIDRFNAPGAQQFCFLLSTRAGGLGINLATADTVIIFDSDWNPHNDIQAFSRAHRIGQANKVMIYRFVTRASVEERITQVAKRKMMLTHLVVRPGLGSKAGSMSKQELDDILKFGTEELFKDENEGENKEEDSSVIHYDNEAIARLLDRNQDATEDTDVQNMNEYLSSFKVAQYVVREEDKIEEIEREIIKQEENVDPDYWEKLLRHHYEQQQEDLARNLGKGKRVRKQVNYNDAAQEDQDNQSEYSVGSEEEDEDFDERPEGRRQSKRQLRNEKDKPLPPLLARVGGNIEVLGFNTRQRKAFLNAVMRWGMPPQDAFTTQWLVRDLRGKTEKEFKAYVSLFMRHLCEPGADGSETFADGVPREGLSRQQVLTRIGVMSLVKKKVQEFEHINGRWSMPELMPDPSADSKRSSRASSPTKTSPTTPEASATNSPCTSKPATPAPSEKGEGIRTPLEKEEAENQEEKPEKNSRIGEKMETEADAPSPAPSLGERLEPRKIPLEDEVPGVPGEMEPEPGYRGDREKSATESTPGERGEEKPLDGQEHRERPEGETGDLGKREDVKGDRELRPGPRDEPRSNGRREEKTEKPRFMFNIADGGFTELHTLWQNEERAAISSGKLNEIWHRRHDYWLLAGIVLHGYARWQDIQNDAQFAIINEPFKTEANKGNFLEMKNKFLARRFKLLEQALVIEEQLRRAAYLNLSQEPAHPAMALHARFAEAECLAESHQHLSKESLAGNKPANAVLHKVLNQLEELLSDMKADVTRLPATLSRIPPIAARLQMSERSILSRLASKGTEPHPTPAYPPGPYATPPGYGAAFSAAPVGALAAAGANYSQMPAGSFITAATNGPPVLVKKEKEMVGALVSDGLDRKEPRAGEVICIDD
T7 sequence (Q14566 whole entry): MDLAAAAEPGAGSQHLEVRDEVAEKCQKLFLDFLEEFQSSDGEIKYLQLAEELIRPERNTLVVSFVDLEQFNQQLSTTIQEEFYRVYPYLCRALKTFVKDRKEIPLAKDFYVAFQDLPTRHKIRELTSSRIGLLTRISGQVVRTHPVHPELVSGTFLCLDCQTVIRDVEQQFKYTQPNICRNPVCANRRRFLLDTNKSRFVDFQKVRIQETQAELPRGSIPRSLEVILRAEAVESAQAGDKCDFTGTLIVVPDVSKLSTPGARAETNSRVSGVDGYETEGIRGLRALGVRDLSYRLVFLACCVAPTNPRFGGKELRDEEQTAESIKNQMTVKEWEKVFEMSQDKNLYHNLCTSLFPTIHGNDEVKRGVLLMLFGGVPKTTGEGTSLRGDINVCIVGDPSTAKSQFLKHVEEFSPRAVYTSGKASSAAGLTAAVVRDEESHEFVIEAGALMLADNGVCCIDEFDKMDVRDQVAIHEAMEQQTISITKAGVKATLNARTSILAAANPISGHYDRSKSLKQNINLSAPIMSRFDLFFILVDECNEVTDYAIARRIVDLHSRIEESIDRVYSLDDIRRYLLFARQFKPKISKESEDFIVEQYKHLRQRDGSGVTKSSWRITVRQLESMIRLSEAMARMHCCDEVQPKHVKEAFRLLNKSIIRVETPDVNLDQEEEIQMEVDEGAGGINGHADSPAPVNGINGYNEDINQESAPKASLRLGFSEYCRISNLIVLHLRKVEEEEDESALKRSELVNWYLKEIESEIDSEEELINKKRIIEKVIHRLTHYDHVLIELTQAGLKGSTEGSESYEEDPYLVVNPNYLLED
T4 sequence (Q9Y6M1 whole entry): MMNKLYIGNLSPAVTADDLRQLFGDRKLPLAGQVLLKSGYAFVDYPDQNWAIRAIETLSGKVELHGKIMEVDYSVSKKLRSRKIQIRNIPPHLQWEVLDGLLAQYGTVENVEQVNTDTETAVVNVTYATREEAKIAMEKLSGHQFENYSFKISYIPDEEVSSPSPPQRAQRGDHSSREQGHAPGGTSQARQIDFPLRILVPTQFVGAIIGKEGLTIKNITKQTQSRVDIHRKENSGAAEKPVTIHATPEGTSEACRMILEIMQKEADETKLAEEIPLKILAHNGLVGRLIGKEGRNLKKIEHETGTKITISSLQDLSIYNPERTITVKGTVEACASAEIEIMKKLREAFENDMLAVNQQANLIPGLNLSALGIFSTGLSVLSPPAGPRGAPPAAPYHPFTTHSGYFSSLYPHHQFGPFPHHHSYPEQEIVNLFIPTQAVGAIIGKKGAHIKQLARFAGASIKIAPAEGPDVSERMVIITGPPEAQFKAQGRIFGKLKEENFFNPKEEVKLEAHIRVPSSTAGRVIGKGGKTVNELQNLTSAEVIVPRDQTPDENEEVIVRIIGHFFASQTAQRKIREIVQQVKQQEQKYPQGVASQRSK
T1 sequence (Q13867 whole entry): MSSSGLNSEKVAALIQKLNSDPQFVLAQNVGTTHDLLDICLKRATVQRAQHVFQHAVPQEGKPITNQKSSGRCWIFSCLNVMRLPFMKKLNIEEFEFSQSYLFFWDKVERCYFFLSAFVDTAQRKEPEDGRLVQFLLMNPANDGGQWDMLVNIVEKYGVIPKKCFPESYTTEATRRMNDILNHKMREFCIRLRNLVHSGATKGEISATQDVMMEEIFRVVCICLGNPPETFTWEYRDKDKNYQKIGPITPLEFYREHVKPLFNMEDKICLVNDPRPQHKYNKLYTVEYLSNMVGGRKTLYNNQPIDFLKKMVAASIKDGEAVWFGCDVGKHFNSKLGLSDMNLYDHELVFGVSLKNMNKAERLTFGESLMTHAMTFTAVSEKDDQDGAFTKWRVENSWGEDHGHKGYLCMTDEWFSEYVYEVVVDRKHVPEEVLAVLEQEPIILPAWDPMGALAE
T3 sequence (P06493 whole entry): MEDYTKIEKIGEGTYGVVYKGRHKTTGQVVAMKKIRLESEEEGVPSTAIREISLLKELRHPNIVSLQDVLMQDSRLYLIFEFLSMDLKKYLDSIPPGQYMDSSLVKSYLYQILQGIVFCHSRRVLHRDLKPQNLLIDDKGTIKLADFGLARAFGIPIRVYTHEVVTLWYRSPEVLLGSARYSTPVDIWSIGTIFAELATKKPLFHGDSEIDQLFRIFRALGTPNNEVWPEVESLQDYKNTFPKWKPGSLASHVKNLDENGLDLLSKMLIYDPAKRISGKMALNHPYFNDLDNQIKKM

In the case of `Cn1c2c(c(=N)c3c1CCC3)CCC2` [Compound 1, 4-methyl-2,3,4,5,6,7-hexahydrodicyclopenta[b,e]pyridin-8(1H)-imine], the Difference ([1]; Cmpd minus DMSO, -LOG(P-value) 0.904295) is reported as -3.65, the “iBAQ Cmpd” value ([1]; replicates 1-3) is reported as 19.0378 and 19.0387 and 13.7316 and the Difference ([2]; Cmpd minus DMSO, -LOG(P-value) 0.756951) is reported as -1.815. The “iBAQ Cmpd” value ([2]; replicates 1-3) was 14.8034 and 14.2721 and 13.9438, the Difference ([3]; Cmpd minus DMSO, -LOG(P-value) 0.868994) was -0.7208 and the “iBAQ Cmpd” value ([3]; replicates 1-3) was 20.3513 and 19.7871 and 19.2381. The Difference ([4]; Cmpd minus DMSO, -LOG(P-value) 0.946138) was 1.759, the “iBAQ Cmpd” value ([4]; replicates 1-3) was 20.2891 and 19.4609 and 19.6711 and the Difference ([5]; Cmpd minus DMSO, -LOG(P-value) 0.92202) was -1.239. The “iBAQ Cmpd” value ([5]; replicates 1-3) was 21.041 and 21.3151 and 19.6243, the Difference ([6]; Cmpd minus DMSO, -LOG(P-value) 0.713884) was 3.378 and the “iBAQ Cmpd” value ([6]; replicates 1-3) was 19.623 and 19.0936 and 18.8692. The Difference ([7]; Cmpd minus DMSO, -LOG(P-value) 0.814851) was 1.097, the “iBAQ Cmpd” value ([7]; replicates 1-3) was 19.4847 and 18.183 and 18.682 and the Difference ([8]; Cmpd minus DMSO, -LOG(P-value) 0.726003) was 1.872. The “iBAQ Cmpd” value ([8]; replicates 1-3) was 17.5569 and 16.2606 and 16.9957, the Difference ([9]; Cmpd minus DMSO, -LOG(P-value) 0.772292) was 1.661 and the “iBAQ Cmpd” value ([9]; replicates 1-3) was 17.4605 and 16.7059 and 15.0689. The Difference ([10]; Cmpd minus DMSO, -LOG(P-value) 0.868477) was -1.064 and the “iBAQ Cmpd” value ([10]; replicates 1-3) was 20.5029 and 19.445 and 19.2006.
